Experiments:
Format in all cases: cell-based
[1] = biological target: hA2a (Homo sapiens (Human), UniProt P29274); assay: cAMP inhibition assay in hA2a/CHO cells; conditions: adenosine stimulation, read-out: cAMP & FLIPR IC50 (nM) hA2a
Experimental: (§1) hA2a/CHO, hA2b/CHO and mA2a/CHO (Genscript) were plated at 5×10^3 cells/well into 384-well polystyrene plates at the day of experiment. Compounds were pre-incubated with cells for 30 min at 37° C., 5% CO2. Then […] adenosine was added to the cells and incubated for 30 min at 37° C., 5% CO2. Detection reagent (CISBIO) was added and the plates were incubated for 60 min at room temperature. The signal was captured by Envision.
FLIPR™ and cAMP inhibition activities of exemplary compounds in different adenosine receptor over-expressing cell lines are shown in Table 4 below.

[2] = biological target: hA2b (Homo sapiens (Human), UniProt P29275); assay: cAMP inhibition assay in hA2b/CHO cells; conditions: adenosine stimulation, read-out: cAMP & FLIPR IC50 (nM) hA2b
hA2b, sequence (P29275 whole entry): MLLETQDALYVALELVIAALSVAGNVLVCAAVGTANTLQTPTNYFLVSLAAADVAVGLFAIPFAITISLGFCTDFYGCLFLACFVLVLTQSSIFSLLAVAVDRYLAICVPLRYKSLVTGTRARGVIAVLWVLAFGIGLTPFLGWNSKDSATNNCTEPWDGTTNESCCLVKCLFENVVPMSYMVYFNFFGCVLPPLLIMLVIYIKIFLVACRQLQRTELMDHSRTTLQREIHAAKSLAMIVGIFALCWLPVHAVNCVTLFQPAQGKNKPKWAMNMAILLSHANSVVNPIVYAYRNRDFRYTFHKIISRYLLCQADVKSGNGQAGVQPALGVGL
Experimental: as §1

[3] = biological target: mA2a (Mus musculus (Mouse), UniProt Q60613); assay: cAMP inhibition assay in mA2a/CHO cells; conditions: adenosine stimulation, read-out: cAMP & FLIPR IC50 (nM) mA2a
mA2a, sequence (Q60613 whole entry): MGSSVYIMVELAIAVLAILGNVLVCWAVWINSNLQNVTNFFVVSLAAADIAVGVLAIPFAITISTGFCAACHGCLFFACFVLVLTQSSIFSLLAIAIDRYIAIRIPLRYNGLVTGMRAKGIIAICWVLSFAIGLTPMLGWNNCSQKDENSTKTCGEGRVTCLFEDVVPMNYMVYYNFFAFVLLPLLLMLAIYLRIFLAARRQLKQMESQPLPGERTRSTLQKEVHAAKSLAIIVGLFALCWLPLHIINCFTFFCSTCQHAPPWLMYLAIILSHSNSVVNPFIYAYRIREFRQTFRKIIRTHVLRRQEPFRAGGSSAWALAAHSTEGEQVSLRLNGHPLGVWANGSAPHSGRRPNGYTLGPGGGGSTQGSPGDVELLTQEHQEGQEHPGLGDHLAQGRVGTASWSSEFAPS
Experimental: as §1

[4] = biological target: hA1 (Homo sapiens (Human), UniProt P30542); assay: FLIPR inhibition assay in hADORA1/CHO (hA1 expressing) cells; conditions: hADORA1/CHO cells, FLIPR calcium, adenosine stimulation; read-out: cAMP & FLIPR IC50 (nM) hA1
hA1, sequence (P30542 whole entry): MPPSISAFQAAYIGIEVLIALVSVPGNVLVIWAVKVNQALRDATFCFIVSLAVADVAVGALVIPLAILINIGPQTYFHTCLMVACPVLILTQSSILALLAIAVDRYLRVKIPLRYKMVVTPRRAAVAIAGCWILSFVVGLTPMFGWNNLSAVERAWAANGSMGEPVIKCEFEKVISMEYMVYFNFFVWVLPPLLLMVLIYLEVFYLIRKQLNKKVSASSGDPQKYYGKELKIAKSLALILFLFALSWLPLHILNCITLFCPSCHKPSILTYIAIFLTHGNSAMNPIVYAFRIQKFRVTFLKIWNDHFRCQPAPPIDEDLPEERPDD
Experimental: hADORA1/CHO (hA1 expressing) cells (Genscript) were plated at 1×10^4 cells/well into 384-well polystyrene plates one day before starting the experiment. On the day of experiment, the supernatant was discard and replaced with 40 µL of dye (FLIPR calcium 5 Assay Kit) per well and the plates were incubated for 60 mins at 37° C. plus 5% CO2. Then testing compounds were added at different concentrations for FLIPR™ inhibition assay. After a 400 s incubation with compound, […] adenosine was added into the cells, and the signal was captured by FLIPR.

hA2a, sequence (P29274 whole entry): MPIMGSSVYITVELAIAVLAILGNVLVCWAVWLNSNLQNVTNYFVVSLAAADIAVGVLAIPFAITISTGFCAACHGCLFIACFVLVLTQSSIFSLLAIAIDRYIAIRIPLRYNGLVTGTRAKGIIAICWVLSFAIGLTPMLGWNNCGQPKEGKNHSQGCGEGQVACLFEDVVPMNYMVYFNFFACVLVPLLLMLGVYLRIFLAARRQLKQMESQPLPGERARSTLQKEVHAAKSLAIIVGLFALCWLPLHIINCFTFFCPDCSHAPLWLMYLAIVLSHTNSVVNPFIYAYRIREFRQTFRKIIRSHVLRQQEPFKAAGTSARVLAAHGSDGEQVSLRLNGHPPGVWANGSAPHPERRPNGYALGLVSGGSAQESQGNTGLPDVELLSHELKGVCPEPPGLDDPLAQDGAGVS

Structure (SMILES) | IC50 [1] | IC50 [2] | IC50 [3] | IC50 [4]
Cc1cc(-c2c(-c3ncco3)nc(N)n3nc(Cc4c(F)cccc4F)nc23)cc(N)n1 [Example 81, 8-(2-amino-6-methylpyridin-4-yl)-2-(2,6-difluor obenzyl)-7-(oxazol-2-yl)-[1,2,4]triazolo[1,5-c] pyrimidin-5-amine] | 49 nM | 9090 nM | 164 nM | 5320 nM
Cc1cnc2ccc(-c3c(-c4ncco4)nc(N)n4nc(CC5CCOC5)nc34)cn12 (single isomer, unassigned) [Example 107-2, 8-(3-methylimidazo[1,2-a]pyridin-6-yl)-7-(oxazol-2-yl)-2-((tetrahydrofuran-3-yl)methyl)-[1,2,4]triazolo[1,5-f]pyrimidin-5-amine] | 0.5 nM | 473 nM | 27.7 nM | 34.5 nM
Nc1nc(-c2ccc(F)cc2)c(-c2ccc(=O)n(C3CCOC3)c2)c2nc(Cc3c(F)cccc3F)nn12 (stereo not drawn) [Example 23, 5-(5-amino-2-(2,6-difluorobenzyl)-7-(4-fluorophenyl)-[1,2,4]triazolo[1,5-c]pyrimidin-8-yl)-1-(tetrahydrofuran-3-yl)pyridin-2(1H)-one] | 7.7 nM | 2060 nM | 2.9 nM | 26 nM
Cc1cnc2ccc(-c3c(N(C)C)nc(N)n4nc(Cc5ncccc5F)nc34)cn12 [Example 100, 2-[(3-fluoropyridin-2-yl)methyl]-N7,N7-dimethyl-8-[3-methylimidazo[1,2-a]pyridin-6-yl]-[1,2,4]triazolo[1,5-c]pyrimidine-5,7-diamine] | 1.2 nM | 38 nM | 3.5 nM | 11.8 nM
Cc1cnc2ccc(-c3c(-c4ccc(F)cc4)nc(N)n4nc(C[C@H]5CCCN5C)nc34)cn12 [Example 125, (R)-7-(4-fluorophenyl)-8-(3-methylimidazo[l,2-a]pyrdin-6-yl)-2-((1-methylpyrrolidin-2-yl)methyl)-[l,2,4]triazolo[l,5-c]pyrimidin-5-amine] | 0.4 nM | – | – | 34.1 nM
Cn1cc(-c2c(-c3ccc(F)cc3)nc(N)n3nc(Cc4cscn4)nc23)ccc1=O [Example 58, 5-[5-amino-7-(4-fluorophenyl)-2-[(1,3-thiazol-4-yl)methyl]-[1,2,4]triazolo[1,5-c]pyrimidin-8-yl]-1-methyl-1,2-dihydropyridin-2-one] | 29 nM | 2290 nM | 47 nM | 25 nM
Cc1cnc2ccc(-c3c(N4CCOC(C)C4)nc(N)n4nc(Cc5ncccc5F)nc34)cn12 (single isomer, unassigned; isomer 2) [Example 112-2, 2-((3-fluoropyridin-2-yl)methyl)-8-(3-methylimidazo[l,2-a]pyridin-6-yl)-7-(2-methylmorpholino)-[1,2,4]triazolo[1,5-c]pyrimidin-5-amine (isomer 2)] | 3.2 nM | – | – | 120 nM
COCCc1nc2c(-c3ccc4ncc(C)n4c3)c(-c3ncco3)nc(N)n2n1 [Example 126, 2-(2-methoxyethyl)-8-(3-methylimidazo[l,2-a]pyridin-6-yl)-7-(oxazol-2-yl)-[1,2,4]triazolo[1,5-c]pyrimidin-5-amine] | 1.1 nM | – | – | 83.6 nM
Cc1cnc2ccc(-c3c(N4CCC4)nc(N)n4nc(Cc5ncccc5F)nc34)cn12 [Example 119, 7-(azetidin-l-yl)-2-((3-fluoropyridin-2-yl)methyl)-8-(3-methylimidazo[1,2-a]pyridin-6-yl)-[1,2,4] triazolo[1,5-c]pyrimidin-5-amine] | 1.9 nM | – | – | 48.6 nM
Cc1cnc2ccc(-c3c(N4CC5(COC5)C4)nc(N)n4nc(Cc5ncccc5F)nc34)cn12 [Example 118, 2-((3-fluoropyridin-2-yl)methyl)-8-(3-methylimidazo[l,2-a]pyridin-6-yl)-7-(2-oxa-6-azaspiro[3.3)heptan-6-yl)-[l,2,4]triazolo[l,5-c]pyrimidin-5-a mine] | 228 nM | – | – | > 8090 nM
Cc1cnc2ccc(-c3c(N4CCOC[C@@H]4C)nc(N)n4nc(Cc5ncccc5F)nc34)cn12 (single isomer, unassigned; isomer 1) [Example 113-1, 2-((3-fluoropyridin-2-yl)methyl)-8-(3-methylimidazo[l,2-a]pyridin-6-yl)-7-(3-methylmorpholino)-[1,2,4]triazolo[1,5-c]pyrimidin-5-amine (isomer 1)] | 42.4 nM | – | – | 3270 nM
Cc1cnc2ccc(-c3c(N4CCOCC4C)nc(N)n4nc(Cc5ncccc5F)nc34)cn12 (single isomer, unassigned; isomer 2) [Example 113-2, 2-((3-fluoropyridin-2-yl)methyl)-8-(3-methylimidazo[1,2-a]pyridin-6-yl)-7-(3-methylmorpholino)-[1,2,4]triazolo[1,5-c]pyrimidin-5-amine (isomer 2)] | 73 nM | – | – | > 10000 nM
Cc1cnc2ccc(-c3c(N4CCN(C)CC4)nc(N)n4nc(Cc5c(F)cccc5F)nc34)cn12 [Example 108, 2-(2,6-difluorobenzyl)-8-(3-methylimidazo[1,2-a]pyridin-6-yl)-7-{4-methylpiperazin-l-yl)-[1,2,4] triazolo[1,5-c]pyrimidin-5-amine] | 42.3 nM | – | – | 131 nM
Cc1cnc2ccc(-c3c(-c4ncco4)nc(N)n4nc(CC5CCCO5)nc34)cn12 (single isomer, unassigned) [Example 106-1, 8-(3-methylimidazo[1,2-a]pyridin-6-yl)-7-(oxazol-2-yl)-2-((tetrahydrofuran-2-yl)methyl)-[1,2,4]triazolo[1,5-f]pyrimidin-5-amine] | 0.5 nM | – | – | 53.2 nM
Cn1cc(-c2c(-c3ncco3)nc(N)n3nc(Cc4ncccc4OC(F)F)nc23)ccc1=O [Example 71, 5-(5-amino-2-[[3-(difluoromethoxy)pyridin-2-yl]methyl]-7-(1,3-oxazol-2-yl)-[1,2,4]triazolo[1,5-c]pyrimidin-8-yl)-1-methyl-1,2-dihydropyridin-2-one] | 11 nM | 102 nM | – | 8.9 nM
COC1CN(c2nc(N)n3nc(Cc4c(F)cccc4F)nc3c2-c2ccc3ncc(C)n3c2)C1 [Example 109, 2-(2,6-difluorobenzyl)-7-(3-methoxyazetidin-l-yl)-8-(3-methylimidazo[l,2-a]pyridin-6-yl)-[l,2,4] triazolo[1,5-c]pyrimidin-5-amine] | 3.5 nM | – | – | 30.6 nM
Cc1cnc2ccc(-c3c(-c4ncco4)nc(N)n4nc(CC5CCCO5)nc34)cn12 (single isomer, unassigned) [Example 106-2, 8-(3-methylimidazo[1,2-a]pyridin-6-yl)-7-(oxazol-2-yl)-2-((tetrahydrofuran-2-yl)methyl)-[1,2,4]triazolo[1,5-f]pyrimidin-5-amine] | 0.2 nM | – | – | 34.9 nM
CN1CCC[C@H]1Cc1nc2c(-c3ccc4ncn(C)c4c3)c(-c3ccc(F)cc3)nc(N)n2n1 [Example 103, (S)-7-(4-fluorophenyl)-8-(1-methyl-1H-benzo[d]imidazol-6-yl)-2-((1-methylpyrrolidin-2-yl)methyl)-[1,2,4]triazolo[1,5-c]pyrimidin-5-amine] | 8.3 nM | – | 30.3 nM | 264 nM
Cc1cnc2ccc(-c3c(-c4ccc(F)cc4)nc(N)n4nc(CC5CCOC5)nc34)cn12 (single isomer, unassigned; isomer 2) [Example 105-2, 7-(4-fluorophenyl)-8-(3-methylimidazo[l,2-a]pyridin-6-yl)-2-((tetrahydrofuran-3-yl)methyl)-[1,2, 4]triazolo[1,5-c]pyrimidin-5-amine(isomer 2)] | – | 71.6 nM | – | 11.8 nM
COc1cc(-c2c(-c3ccc(F)cc3)nc(N)n3nc(Cc4c(F)cccc4F)nc23)ccn1 [Example 5, 2-(2,6-difluorobenzyl)-7-(4-fluorophenyl)-8-(2-methoxypyridin-4-yl)-[1,2,4]lriazolo[1,5-c] pyrimidin-5-amine] | 1.9 nM | – | 1.5 nM | –
Cc1cnc2ccc(-c3c(N4CCOC(C)C4)nc(N)n4nc(Cc5ncccc5F)nc34)cn12 (single isomer, unassigned; isomer 1) [Example 112-1, 2-((3-fluoropyridin-2-yl)methyl)-8-(3-methylimidazo[l,2-a]pyridin-6-yl)-7-(2-methylmorpholino)-[1,2,4]triazolo[1,5-c]pyrimidin-5-amine (isomer 1)] | 91.6 nM | – | – | 966 nM
CN1CCC[C@@H]1Cc1nc2c(-c3ccc4ncn(C)c4c3)c(-c3ccc(F)cc3)nc(N)n2n1 [Example 104, (R)-7-(4-fluorophenyl)-8-(1-methyl-1H-benzo[d]imidazol-6-yl)-2-((1-methylpyrrolidin-2-yl)methyl)-[1,2,4]triazolo[1,5-c]pyrimidin-5-amine] | 1 nM | – | 5.7 nM | 34.1 nM
